Test results taken from PubChem BioAssay (NCI).
“And” between values parts separate entries of the source, which are not always exact repeats. Equal values may be shown once.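 The compound was tested at five concentrations on cells cultured in 96-well plates, with a 48-hour exposure period. At the GI50, growth is halved. TGI: total growth inhibition.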

Tests used:
Experiment in all cases: inhibition of tumour cell growth, NCI panel, 48 h
A498 renal = test system: A498 renal
A549 NSCLC = test system: A549 NSCLC
ACHN renal = test system: ACHN renal
BT-549 breast = test system: BT-549 breast
CAKI-1 renal = test system: CAKI-1 renal
CCRF-CEM leukemia = test system: CCRF-CEM leukemia
COLO 205 colon = test system: COLO 205 colon
DU-145 prostate = test system: DU-145 prostate
EKVX NSCLC = test system: EKVX NSCLC
HCT-15 colon = test system: HCT-15 colon
HL-60(TB) leukemia = test system: HL-60(TB) leukemia
HOP-62 NSCLC = test system: HOP-62 NSCLC
HOP-92 NSCLC = test system: HOP-92 NSCLC
HS 578T breast = test system: HS 578T breast
HT29 colon = test system: HT29 colon
IGROV1 ovarian = test system: IGROV1 ovarian
K-562 leukemia = test system: K-562 leukemia
KM12 colon = test system: KM12 colon
LOX IMVI melanoma = test system: LOX IMVI melanoma
M14 melanoma = test system: M14 melanoma
MALME-3M melanoma = test system: MALME-3M melanoma
MCF7 breast = test system: MCF7 breast
MDA-MB-231 breast = test system: MDA-MB-231 breast
MDA-MB-435 = test system: MDA-MB-435
MOLT-4 leukemia = test system: MOLT-4 leukemia
NCI-H226 lung = test system: NCI-H226 lung
NCI-H23 lung = test system: NCI-H23 lung
NCI-H460 lung = test system: NCI-H460 lung
NCI-H522 lung = test system: NCI-H522 lung
NCI/ADR-RES ovarian = test system: NCI/ADR-RES ovarian
OVCAR-3 ovarian = test system: OVCAR-3 ovarian
OVCAR-4 ovarian = test system: OVCAR-4 ovarian
OVCAR-5 ovarian = test system: OVCAR-5 ovarian
OVCAR-8 ovarian = test system: OVCAR-8 ovarian
PC-3 prostate = test system: PC-3 prostate
RPMI-8226 leukemia = test system: RPMI-8226 leukemia
RXF 393 renal = test system: RXF 393 renal
SF-268 CNS = test system: SF-268 CNS
SF-295 CNS = test system: SF-295 CNS
SF-539 CNS = test system: SF-539 CNS
SK-MEL-2 melanoma = test system: SK-MEL-2 melanoma
SK-MEL-28 melanoma = test system: SK-MEL-28 melanoma
SK-MEL-5 melanoma = test system: SK-MEL-5 melanoma
SK-OV-3 ovarian = test system: SK-OV-3 ovarian
SNB-19 CNS = test system: SNB-19 CNS
SNB-75 CNS = test system: SNB-75 CNS
SR leukemia = test system: SR leukemia
SW-620 colon = test system: SW-620 colon
T-47D breast = test system: T-47D breast
TK-10 renal = test system: TK-10 renal
U251 CNS = test system: U251 CNS
UACC-257 melanoma = test system: UACC-257 melanoma
UACC-62 melanoma = test system: UACC-62 melanoma
UO-31 renal = test system: UO-31 renal
786-0 renal = test system: 786-0 renal
HCC-2998 colon = test system: HCC-2998 colon
HCT-116 colon = test system: HCT-116 colon
SN12C renal = test system: SN12C renal

CCCS(=O)(=O)O
TGI (A498 renal): > 100 µM
TGI (A549 NSCLC): > 100 µM
TGI (ACHN renal): > 100 µM
TGI (BT-549 breast): > 100 µM
TGI (CAKI-1 renal): > 100 µM
TGI (CCRF-CEM leukemia): > 100 µM
TGI (COLO 205 colon): > 100 µM
TGI (DU-145 prostate): > 100 µM
TGI (EKVX NSCLC): > 100 µM
TGI (HCT-15 colon): > 100 µM
TGI (HL-60(TB) leukemia): > 100 µM
TGI (HOP-62 NSCLC): > 100 µM
TGI (HOP-92 NSCLC): > 100 µM
TGI (HS 578T breast): > 100 µM
TGI (HT29 colon): > 100 µM
TGI (IGROV1 ovarian): > 100 µM
TGI (K-562 leukemia): > 100 µM
TGI (KM12 colon): > 100 µM
TGI (LOX IMVI melanoma): > 100 µM
TGI (M14 melanoma): > 100 µM
TGI (MALME-3M melanoma): > 100 µM
TGI (MCF7 breast): > 100 µM
TGI (MDA-MB-231 breast): > 100 µM
TGI (MDA-MB-435): > 100 µM
TGI (MOLT-4 leukemia): > 100 µM
TGI (NCI-H226 lung): > 100 µM
TGI (NCI-H23 lung): > 100 µM
TGI (NCI-H460 lung): > 100 µM
TGI (NCI-H522 lung): > 100 µM
TGI (NCI/ADR-RES ovarian): > 100 µM
TGI (OVCAR-3 ovarian): > 100 µM
TGI (OVCAR-4 ovarian): > 100 µM
TGI (OVCAR-5 ovarian): > 100 µM
TGI (OVCAR-8 ovarian): > 100 µM
TGI (PC-3 prostate): > 100 µM
TGI (RPMI-8226 leukemia): > 100 µM
TGI (RXF 393 renal): > 100 µM
TGI (SF-268 CNS): > 100 µM
TGI (SF-295 CNS): > 100 µM
TGI (SF-539 CNS): > 100 µM
TGI (SK-MEL-2 melanoma): > 100 µM
TGI (SK-MEL-28 melanoma): > 100 µM
TGI (SK-MEL-5 melanoma): > 100 µM
TGI (SK-OV-3 ovarian): > 100 µM
TGI (SNB-19 CNS): > 100 µM
TGI (SNB-75 CNS): > 100 µM
TGI (SR leukemia): > 100 µM
TGI (SW-620 colon): > 100 µM
TGI (T-47D breast): > 100 µM
TGI (TK-10 renal): > 100 µM
TGI (U251 CNS): > 100 µM
TGI (UACC-257 melanoma): > 100 µM
TGI (UACC-62 melanoma): > 100 µM
TGI (UO-31 renal): > 100 µM

N/C(=N\O)c1ncc(-c2ccc(C(F)(F)F)cc2)c(NC2CCCCCC2)n1
GI50 (786-0 renal): 3.54 µM
TGI (786-0 renal): 13.1 µM
GI50 (A498 renal): 1.96 µM
TGI (A498 renal): 15.8 µM
GI50 (A549 NSCLC): 2.34 µM
TGI (A549 NSCLC): 11.1 µM
GI50 (ACHN renal): 4.49 µM and 2.23 µM
TGI (ACHN renal): 13.3 µM
GI50 (BT-549 breast): 4.54 µM
TGI (BT-549 breast): 18.2 µM
GI50 (CAKI-1 renal): 5.71 µM and 1.69 µM
TGI (CAKI-1 renal): 8.1 µM
GI50 (CCRF-CEM leukemia): 2.46 µM
TGI (CCRF-CEM leukemia): 11.8 µM
GI50 (COLO 205 colon): 3.44 µM
TGI (COLO 205 colon): 10.6 µM
GI50 (DU-145 prostate): 6.78 µM and 3.38 µM
TGI (DU-145 prostate): 16.1 µM
GI50 (HCC-2998 colon): 3.92 µM
TGI (HCC-2998 colon): 14.3 µM
GI50 (HCT-116 colon): 3.95 µM and 1.41 µM
TGI (HCT-116 colon): 11.9 µM
GI50 (HCT-15 colon): 2.97 µM and 0.955 µM
TGI (HCT-15 colon): 15.1 µM
GI50 (HL-60(TB) leukemia): 2.06 µM
TGI (HL-60(TB) leukemia): 5.52 µM
GI50 (HOP-62 NSCLC): 7.5 µM and 6.53 µM
TGI (HOP-62 NSCLC): 23.2 µM
GI50 (HS 578T breast): 5.67 µM
TGI (HS 578T breast): 23.2 µM
GI50 (HT29 colon): 3.24 µM
TGI (HT29 colon): 10.4 µM
GI50 (IGROV1 ovarian): 6.72 µM and 2.26 µM
TGI (IGROV1 ovarian): 10.7 µM
GI50 (K-562 leukemia): 4.36 µM and 1.71 µM
TGI (K-562 leukemia): 11.8 µM
GI50 (KM12 colon): 6.51 µM and 3.13 µM
TGI (KM12 colon): 13.1 µM
GI50 (LOX IMVI melanoma): 8.76 µM and 2.85 µM
TGI (LOX IMVI melanoma): 10.8 µM
GI50 (M14 melanoma): 9.68 µM and 3.24 µM
TGI (M14 melanoma): 13.9 µM
GI50 (MALME-3M melanoma): 3.81 µM
TGI (MALME-3M melanoma): 13.9 µM
GI50 (MCF7 breast): 4.65 µM and 1.43 µM
TGI (MCF7 breast): 12.3 µM
GI50 (MDA-MB-231 breast): 3.96 µM
TGI (MDA-MB-231 breast): 19.3 µM
GI50 (MDA-MB-435): 3.76 µM
TGI (MDA-MB-435): 17 µM
GI50 (MOLT-4 leukemia): 5.44 µM and 1.9 µM
TGI (MOLT-4 leukemia): 5.78 µM
GI50 (NCI-H226 lung): 4.24 µM
TGI (NCI-H226 lung): 26.8 µM
GI50 (NCI-H23 lung): 3.76 µM
TGI (NCI-H23 lung): 16.3 µM
GI50 (NCI-H460 lung): 6.6 µM and 2.6 µM
TGI (NCI-H460 lung): 9.34 µM
GI50 (NCI-H522 lung): 1.92 µM
TGI (NCI-H522 lung): 7.69 µM
GI50 (NCI/ADR-RES ovarian): 4.41 µM and 0.593 µM
TGI (NCI/ADR-RES ovarian): 13.4 µM
GI50 (OVCAR-3 ovarian): 8.8 µM and 3.74 µM
TGI (OVCAR-3 ovarian): 15.2 µM
GI50 (OVCAR-4 ovarian): 2.72 µM
TGI (OVCAR-4 ovarian): 15 µM
GI50 (OVCAR-5 ovarian): 4.51 µM
TGI (OVCAR-5 ovarian): 19.3 µM
GI50 (OVCAR-8 ovarian): 4.6 µM and 2.19 µM
TGI (OVCAR-8 ovarian): 13.4 µM
GI50 (PC-3 prostate): 5.34 µM and 1.92 µM
TGI (PC-3 prostate): 12.1 µM
GI50 (RPMI-8226 leukemia): 8.66 µM and 2.66 µM
TGI (RPMI-8226 leukemia): 9.54 µM
GI50 (RXF 393 renal): 2.74 µM
TGI (RXF 393 renal): 11.6 µM
GI50 (SF-268 CNS): 3.64 µM
TGI (SF-268 CNS): 15.7 µM
GI50 (SF-295 CNS): 2.55 µM
TGI (SF-295 CNS): 12.5 µM
GI50 (SF-539 CNS): 3.39 µM
TGI (SF-539 CNS): 12.3 µM
GI50 (SK-MEL-28 melanoma): 5.38 µM
TGI (SK-MEL-28 melanoma): 19 µM
GI50 (SK-MEL-5 melanoma): 4.66 µM and 3.44 µM
TGI (SK-MEL-5 melanoma): 15.5 µM
GI50 (SK-OV-3 ovarian): 7.05 µM
TGI (SK-OV-3 ovarian): 20.8 µM
GI50 (SN12C renal): 5.79 µM and 3.05 µM
TGI (SN12C renal): 14.5 µM
GI50 (SNB-19 CNS): 3.27 µM
TGI (SNB-19 CNS): 13.8 µM
GI50 (SNB-75 CNS): 5.11 µM
TGI (SNB-75 CNS): 20.6 µM
GI50 (SR leukemia): 4.49 µM and 1.52 µM
TGI (SR leukemia): 6.68 µM
GI50 (SW-620 colon): 4.92 µM and 3.88 µM
TGI (SW-620 colon): 15.4 µM
GI50 (T-47D breast): 6.89 µM and 3.59 µM
TGI (T-47D breast): 16.8 µM
GI50 (TK-10 renal): 2.49 µM
TGI (TK-10 renal): 9.73 µM
GI50 (U251 CNS): 4.35 µM and 1.83 µM
TGI (U251 CNS): 7.51 µM
GI50 (UACC-257 melanoma): 3.23 µM
TGI (UACC-257 melanoma): 13.2 µM
GI50 (UACC-62 melanoma): 9.12 µM and 2.65 µM
TGI (UACC-62 melanoma): 10.5 µM
TGI (UO-31 renal): 10.9 µM
